Experimental data published in patent US12606543B2, “Indole derivatives as serotonergic agents useful for the treatment of disorders related thereto” (priority 2023, dated 2026).
Where two headings read alike, the source gives them in different places.

Tests used:
[1] = Liver microsomes stability, human; format: in vitro ADME; conditions: for CLint scaled at 2 μM: read-out: Scaled-up CLint
Description: (§1) The objective of this study was to estimate in vitro metabolic stability of exemplary compounds of Formula (I) or a pharmaceutically acceptable salt, solvate, and/or prodrug thereof in pooled human, male rat, and male mouse liver microsomes. The concentrations of compounds in reaction systems were evaluated by LC-MS/MS for estimating the stability in pooled human, male rat, and male mouse liver microsomes. The in vitro intrinsic clearances of test compounds were determined as well.
A master solution in the “Incubation Plate” containing phosphate buffer, ultra-pure H2O, MgCl2 solution and liver microsomes was made according to Table 33. The mixture was pre-warmed at 37° C. water bath for 5 minutes.
40 μL of 10 mM nicotinamide adenine dinucleotide phosphate (NADPH) solution was added to each well. The final concentration of NADPH was 1 mM. The negative control samples were prepared by replacing NADPH with 40 μL of ultra-pure H2O. Samples were prepared in duplicate. Negative controls were prepared in singlet.
The reaction was started with the addition of 4 μL of 200 μM exemplary test compounds of the disclosure or control compounds to each master solution to get the final concentration of 2 μM. This study was performed in duplicate.
Aliquots of 50 μL were taken from the reaction solution at 0, 15, 30, 45, and 60 minutes. The reaction solutions were stopped by the addition of 4 volumes of cold methanol with IS (100 nM alprazolam, 200 nM imipramine, 200 nM labetalol, and 2 μM ketoprofen). Samples were centrifuged at 3,220 g for 40 minutes. Aliquot of 90 μL of the supernatant was mixed with 90 μL of ultra-pure H2O and then was used for LC-MS/MS analysis.
LC/MS analysis was performed for all samples from this study using a Shimadzu liquid chromatograph separation system equipped with degasser DGU-20A5R; solvent delivery unit LC-30AD; system controller SIL-30AC; column oven CTO-30A; CTC Analytics HTC PAL System. Mass spectrometric analysis was performed using a Triple Quad™ 5500 instrument.
All calculations were carried out using Microsoft Excel. Peak area ratios of test compound to internal standard (listed in the below table) were determined from extracted ion chromatograms.
All calculations were carried out using Microsoft Excel. Peak areas were determined from extracted ion chromatograms. The slope value, k, was determined by linear regression of the natural logarithm of the remaining percentage of the parent drug vs. incubation time curve.
The in vitro half-life (in vitro t1/2) was determined from the slope value:
Conversion of the in vitro t1/2 (min) into the in vitro intrinsic clearance (in vitro CLint, in μL/min/mg proteins) was done using the following equation (mean of duplicate determinations): […]
as §1, with “solvate” for “solvate,”, “rat” for “rat,”
A master solution in the “Incubation Plate” containing phosphate buffer, ultra-pure H2O, MgCl2 solution and liver microsomes was made according to Table 67. The mixture was pre-warmed at 37° C. water bath for 5 minutes.
40 μL of 10 mM NADPH solution was added to each well. The final concentration of NADPH was 1 mM. The negative control samples were prepared by replacing NADPH with 40 μL of ultra-pure H2O. Samples were prepared in duplicate. Negative controls were prepared in singlet
Aliquots of 50 μL were taken from the reaction solution at 0, 15, 30, 45 and 60 minutes. The reaction solutions were stopped by the addition of 4 volumes of cold methanol with IS (100 nM alprazolam, 200 nM imipramine, 200 nM labetalol and 2 μM ketoprofen).

human 5-HT2C receptor = target: T1, human 5-HT2C receptor (Homo sapiens, UniProt P28335); assay: cell-based; conditions: calcium mobilization FLIPR; for Emax (% of serotonin): U2OS cells, relative to maximum response of serotonin; for EC50: stably transfected U2OS cells
T1 construct: expressed in transfected cells; host or cells: U2OS
T1 sequence (P28335 33-458): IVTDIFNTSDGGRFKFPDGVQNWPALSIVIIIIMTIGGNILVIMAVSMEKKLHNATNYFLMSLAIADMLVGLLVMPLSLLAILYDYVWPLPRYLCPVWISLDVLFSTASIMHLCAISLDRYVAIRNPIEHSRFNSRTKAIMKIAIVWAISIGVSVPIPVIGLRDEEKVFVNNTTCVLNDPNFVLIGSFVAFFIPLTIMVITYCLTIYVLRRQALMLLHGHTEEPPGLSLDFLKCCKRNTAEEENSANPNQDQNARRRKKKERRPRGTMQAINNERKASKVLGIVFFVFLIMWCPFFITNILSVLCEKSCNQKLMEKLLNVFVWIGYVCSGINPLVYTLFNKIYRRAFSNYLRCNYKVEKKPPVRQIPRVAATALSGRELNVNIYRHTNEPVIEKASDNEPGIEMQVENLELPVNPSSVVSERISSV

[2] = human liver microsomes, 2 μM compound, 0.5 mg/mL microsomes
[3] = human liver microsomes, With Cofactors, 0 min
[4] = human liver microsomes, With Cofactors, 30 min
[5] = human liver microsomes, With Cofactors, 60 min
[6] = human liver microsomes, Without Cofactors, 0 min
[7] = human liver microsomes, Without Cofactors, 30 min
[8] = human liver microsomes, Without Cofactors, 60 min
[9] = Human liver microsomes, 2 μM, 0.5 mg/mL, NADPH

SMILES | Predicted hepatic CL ([1]; human liver microsomes) [mL/min/kg] | half-life at 2 μM [1, 2] [min] | microsomal CLint at 2 μM [1, 2] [µL/min/mg] | Remaining Percentage [1, 3] [%] | Remaining Percentage [1, 4] [%] | Remaining Percentage [1, 5] [%] | Remaining Percentage [1, 6] [%] | Remaining Percentage [1, 7] [%] | Remaining Percentage [1, 8] [%] | CLint scaled at 2 μM ([1]; human liver microsomes) [mL/min/kg] | Emax (% of serotonin) (human 5-HT2C receptor) | EC50 (human 5-HT2C receptor) [nM] | further results
[2H]C([2H])(c1c[nH]c2ccc(OCCCCCN3C(=O)C4CCCCC4C3=O)cc12)[C@H]1CCCN1C([2H])([2H])[2H] (mixture of isomers) [Rac (R) I-248] | >19.64 | < 4.51 | > 307 | 100.00 | 0.04 | 0.00 | 100.00 | 100.47 | 98.60 | > 385 | – | – | –
CSc1ccc2[nH]cc(C[C@H]3CCCN3C)c2c1 [(R) I-1, (R)-3-((1-Methylpyrrolidin-2-yl)methyl)-5-(methylthio)-1H-indole] | – | – | – | – | – | – | – | – | – | – | 95.27 % of serotonin | 0.6 | Predicted hepatic CL ([1]; Human liver microsomes): 16.09 mL/min/kg; half-life at 2 μM [1, 9]: 24 min; microsomal CLint at 2 μM [1, 9]: 57.7 µL/min/mg; CLint scaled at 2 μM ([1]; Human liver microsomes): 72.3 mL/min/kg; Remaining Percentage (%) 0 min [1, 3]: 100.00%; Remaining Percentage (%) 30 min [1, 4]: 50.51%; Remaining Percentage (%) 60 min [1, 5]: 17.72%; Remaining Percentage (%) 0 min [1, 6]: 100.00%; Remaining Percentage (%) 30 min [1, 7]: 101.47%; Remaining Percentage (%) 60 min [1, 8]: 97.56%
COCCN1CCC[C@@H]1Cc1c[nH]c2ccc(OC)cc12 [(R) I-98, (R)-5-Methoxy-3-((1-(2-methoxyethyl)pyrrolidin-2-yl)methyl)-1H-indole] | 11.72 | 64.3 | 21.6 | – | 100.00 | 67.04 | – | 100.00 | 98.21 | 27 | 95.23 % of serotonin | 6.51 | –
[2H]C([2H])(c1c[nH]c2ccc(OCCCCN3C(=O)c4ccccc4C3=O)cc12)[C@H]1CCCN1C([2H])([2H])[2H] [(R) I-244, (R)-2-(4-((3-((1-(Methyl-d3)pyrrolidin-2-yl)methyl-d2)-1H-indol-5-yl)oxy)butyl)isoindoline-1,3-dione] | 19.32 | 5.98 | 232 | 100.00 | 3.10 | 0.00 | 100.00 | 94.44 | 88.07 | 290 | 87.27 % of serotonin | 2.53 | –
[2H]C([2H])(c1c[nH]c2ccc(OCCCCCN3C(=O)c4ccccc4C3=O)cc12)[C@H]1CCCN1C([2H])([2H])[2H] [(R) I-245, (R)-2-(5-((3-((1-(Methyl-d3)pyrrolidin-2-yl)methyl-d2)-1H-indol-5-yl)oxy)pentyl)isoindoline-1,3-dione] | 18.11 | 12 | 115 | 100.00 | 14.62 | 3.13 | 100.00 | 101.09 | 98.91 | 145 | 83.29 % of serotonin | 42.3 | –
[2H]C([2H])(c1c[nH]c2ccc(OCCCCCN3C(=O)[C@H]4CCCC[C@H]4C3=O)cc12)[C@H]1CCCN1C([2H])([2H])[2H] [Cis (R) I-248, 2-(5-((3-(((R)-1-(Methyl-d3)pyrrolidin-2-yl)methyl-d2)-1H-indol-5-yl)oxy)pentyl)hexahydro-1H-isoindole-1,3(2H)-dione] | – | – | – | – | – | – | – | – | – | – | 89.99 % of serotonin | 151 | –
